{
  "source": "patent US6815443B2",
  "about": "“5-Amino-1-pentene-3-ol substituted derivatives” (Gruenenthal GmbH, priority 2000, dated 2004)",
  "data": [
    {"test_system": "gabapentin binding site", "assay": "gabapentin binding assay (displacement of gabapentin from its binding site)", "conditions": "not given", "procedure": "Gabapentin is used in the binding assay in order to investigate the binding and affinities of the selected compounds. The affinity of the compounds according to the invention is measured via the displacement of gabapentin from its binding site.", "units": {"% Inhibition gabapentin, 10 μmole": "%"}, "values": [
      {"molecule": "CC(=Cc1ccccc1)C(O)(c1ccccc1)C(C)CN(C)C", "note": "(centres unmarked) [Example 120, 5-dimethylamino-2,4-dimethyl-1,3-diphenyl-pent-1-en-3-ol]", "% Inhibition gabapentin, 10 μmole": 37},
      {"molecule": "CC(=Cc1ccccc1)C(O)(Cc1cccc(C)c1)C(C)CN(C)C", "note": "(centres unmarked) [Example 152, 5-dimethylamino-2,4-dimethyl-3-(3-methylbenzyl)-1-phenyl-pent-1-en-3-ol]", "% Inhibition gabapentin, 10 μmole": 30},
      {"molecule": "CC(=Cc1ccccc1)C(O)(Cc1cccc(Cl)c1)C(C)CN(C)C", "note": "(centres unmarked) [Example 156, 3-(3-chlorobenzyl)-5-dimethylamino-2,4-dimethyl-1-phenyl-pent-1-en-3-ol]", "% Inhibition gabapentin, 10 μmole": 46},
      {"molecule": "COc1cccc(CC(O)(C(C)=Cc2ccc(F)cc2)C(C)CN(C)C)c1", "note": "(centres unmarked) [Example 184, 5-dimethylamino-1-(4-fluorophenyl)-3-(3-methoxybenzyl)-2,4-dimethyl-pent-1-en-3-ol]", "% Inhibition gabapentin, 10 μmole": 47},
      {"molecule": "COc1cccc(CC(O)(C(C)=Cc2ccc(Cl)cc2)C(C)CN(C)C)c1", "note": "(centres unmarked) [Example 223, 1-(4-chlorophenyl)-5-dimethylamino-3-(3-methoxybenzyl)-2,4-dimethyl-pent-1-en-3-ol]", "% Inhibition gabapentin, 10 μmole": 40},
      {"molecule": "COc1cccc(C=C2CCCCC(CN(C)C)C2(O)c2ccc(Cl)cc2)c1", "note": "(centres unmarked) [Example 353, 1-(4-chlorophenyl)-2-dimethylaminomethyl-7-(3-methoxy-benzylidene)-cycloheptanol]", "% Inhibition gabapentin, 10 μmole": 44},
      {"molecule": "COc1ccc(C2(O)C(=Cc3cccc(OC)c3)CCCCC2CN(C)C)cc1", "note": "(centres unmarked) [Example 369, 2-dimethylaminomethyl-7-(3-methoxybenzylidene)-1-(4-methoxyphenyl)-cycloheptanol]", "% Inhibition gabapentin, 10 μmole": 43}
    ]},
    {"test_system": "phenylquinone-induced writhing in male NMRI mice", "assay": "phenylquinone-induced writhing test in mice", "assay_type": "in vivo", "conditions": "2.15 mg/kg", "procedure": "(§1) The investigation of the analgesic efficacy was carried out according to the phenylquinone-induced writhing test in mice (as modified by I. C. Hendershot and J. Forsaith J. Pharmacol. Exp. Ther. 1959 125, 237-240). For this purpose male NMRI mice weighing 25 to 30 g were used. Groups of 10 animals per substance dose received, 10 minutes after intravenous administration of the test substances, 0.3 ml/mouse of a 0.02% aqueous solution of phenylquinone (phenyl benzoquinone, from Sigma, Deisenhofen; solution prepared by addition of 5% of ethanol and storage in a water bath at 45° C.) applied intraperitoneally. The animals were placed individually in observation cages. The number of pain-induced stretching movements (so-called writhing reactions=contortion of the body accompanied by stretching of the rear extremities) was counted using a push-button counter 5 to 20 minutes after administration of the phenylquinone. Animals that had received only physiological saline served as controls. The number of responding animals was determined for some of the examples.", "values": [
      {"molecule": "CN(C)CC1CCCCC(=Cc2ccccc2)C1(O)c1cccc(O)c1.Cl", "note": "(centres unmarked) [Example 407, 2-benzylidene-7-dimethylaminomethyl-1-(3-hydroxyphenyl)-cycloheptanol, hydrochloride]", "Responding Animals/Control Animals (Writhing IV)": "6/10 (2.15 mg/kg)"}
    ]},
    {"test_system": "phenylquinone-induced writhing in male NMRI mice", "assay": "phenylquinone-induced writhing test in mice", "assay_type": "in vivo", "conditions": "10 mg/kg", "procedure": "as §1", "values": [
      {"molecule": "COc1cccc(C=C2CCCCC(CN(C)C)C2(O)c2cccc(O)c2)c1.Cl", "note": "(centres unmarked) [Example 408, 2-dimethylaminomethyl-1-(3-hydroxyphenyl)-7-(3-methoxy-benzylidene)-cycloheptanol, hydrochloride]", "Responding Animals/Control Animals (Writhing IV)": "9/10 (10 mg/kg)"},
      {"molecule": "COc1cccc(C2(O)C(=Cc3ccccc3)CCCCC2CN(C)C)c1.Cl", "note": "(centres unmarked) [Example 409, 2-benzylidene-7-dimethylaminomethyl-1-(3-methoxyphenyl)-cycloheptanol, hydrochloride]", "Responding Animals/Control Animals (Writhing IV)": "5/10 (10 mg/kg)"},
      {"molecule": "CC(=Cc1ccccc1)C(O)(c1cccc(O)c1)C(C)CCN(C)C.Cl", "note": "(centres unmarked) [Example 410, 3-[1-(2-dimethylaminomethyl-1-methylethyl)-1-hydroxy-2-methyl-3-phenyl-allyl]-phenol, hydrochloride]", "Responding Animals/Control Animals (Writhing IV)": "5/10 (10 mg/kg)"},
      {"molecule": "CC(=Cc1ccccc1)C(O)(Cc1ccc(Cl)cc1)C(C)CN(C)C.Cl", "note": "(centres unmarked) [Example 411, 3-(4-chlorobenzyl)-5-dimethylamino-2,4-dimethyl-1-phenyl-pent-1-en-3-ol, hydrochloride]", "Responding Animals/Control Animals (Writhing IV)": "3/10 (10 mg/kg)"},
      {"molecule": "COc1cccc(C(O)(C(C)=Cc2ccccc2)C(C)CN(C)C)c1.Cl", "note": "(centres unmarked) [Example 412, 5-dimethylamino-3-(3-methoxyphenyl)-2,4-dimethyl-1-phenyl-pent-1-en-3-ol, hydrochloride]", "Responding Animals/Control Animals (Writhing IV)": "9/10 (10 mg/kg)"},
      {"molecule": "CN(C)CC1CCCC(=Cc2ccccc2)C1(O)c1cccc(O)c1.Cl", "note": "(centres unmarked) [Example 413, 3-(2-benzylidene-6-dimethylaminomethyl-1-hydroxycyclohexyl)-phenol, hydrochloride]", "Responding Animals/Control Animals (Writhing IV)": "4/10 (10 mg/kg)"}
    ]}
  ]
}
